Data on one compound can be found in patent US9192635B2.

This series is described as follows: Hydrogen peroxide retention after desiccation and rehydration (peroxide check strips). The format is physicochemical. As to conditions: 1-10 g extract in 20 ml 35% hydrogen peroxide, heated at 80° C. to 5 ml, rehydrated; colorimetric strips.

With `Oc1ccc(C=Cc2cc(O)cc(O)c2)cc1` [resveratrol, Resveratrol], the peroxide retention capability result was “relatively less ability to form stable perhydrates”.
